US12110295B2, “WD40 repeat domain protein 5 (WDR5) degradation/disruption compounds and methods of use” (Icahn School of Medicine at Mount Sinai, priority 2018, dated 2024)

Biological target: WDR5 (Homo sapiens, UniProt P61964)
Assay: Screening of putative WDR5 degraders by Western blot in MV4;11 and/or MIAPACA2 cells
Assay type: cell-based
Set-up: After WDR5 degrader treatment, cells were collected and lysed; endogenous in cells; host or cells: MV4;11 and/or MIAPACA2
Details: summary of screening, FIGS. 6-10
Procedure, shortened: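 MV4;11 (1×10^6/well) or MIAPACA2 (1×10^5/well) cells treated 18 h with compound at paired doses between 0.1 and 10 μM, DMSO as control. Total lysates immunoblotted for WDR5 with vinculin, tubulin or GAPDH loading controls; fluorescent secondary detection.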

| SMILES | effective degradation of WDR5 in MV4;11 and/or MIAPACA2 cells |
| --- | --- |
| Cc1ncsc1-c1ccc(CNC(=O)[C@@H]2C[C@@H](O)CN2C(=O)[C@@H](NC(=O)CCCCCCC(=O)N2CC=C(c3cc(NC(=O)c4c[nH]c(=O)cc4C(F)(F)F)c(N4C[C@@H](C)N(C)[C@@H](C)C4)cc3F)CC2)C(C)(C)C)cc1 [XF078-43, N-(4-fluoro-5-(1-(8-(((S)-1-((2S,4R)-4-hydroxy-2-((4-(4-methylthiazol-5-yl)benzyl)carbamoyl)pyrrolidin-1-yl)-3,3-dimethyl-1-oxobutan-2-yl)amino)-8-oxooctanoyl)-1,2,3,6-tetrahydropyridin-4-yl)-2-((3S,5R)-3,4,5-trimethylpiperazin-1-yl)phenyl)-6-oxo-4-(trifluoromethyl)-1,6-dihydropyridine-3-carboxamide] | able to effectively degrade WDR5 |
| Cc1ncsc1-c1ccc(CNC(=O)[C@@H]2C[C@@H](O)CN2C(=O)[C@@H](NC(=O)COCC(=O)N2CCN(Cc3cnc(N4CC=C(c5cc(NC(=O)c6c[nH]c(=O)cc6C(F)(F)F)c(N6C[C@@H](C)N(C)[C@@H](C)C6)cc5F)CC4)nc3)CC2)C(C)(C)C)cc1 [XF078-132, N-(4-fluoro-5-(1-(5-((4-(2-(2-(((S)-1-((2S,4R)-4-hydroxy-2-((4-(4-methylthiazol-5-yl)benzyl)carbamoyl)pyrrolidin-1-yl)-3,3-dimethyl-1-oxobutan-2-yl)amino)-2-oxoethoxy)acetyl)piperazin-1-yl)methyl)pyrimidin-2-yl)-1,2,3,6-tetrahydropyridin-4-yl)-2-((3S,5R)-3,4,5-trimethylpiperazin-1-yl)phenyl)-6-oxo-4-(trifluoromethyl)-1,6-dihydropyridine-3-carboxamide] | able to effectively degrade WDR5 |
| C[C@@H]1CN(c2cc(F)c(C3=CCN(c4ncc(CN5CCN(C(=O)CCOCCOCCNc6cccc7c6C(=O)N(C6CCC(=O)NC6=O)C7=O)CC5)cn4)CC3)cc2NC(=O)c2c[nH]c(=O)cc2C(F)(F)F)C[C@H](C)N1C (stereo partly drawn) [XF078-157, N-(5-(1-(5-((4-(3-(2-(2-((2-(2,6-dioxopiperidin-3-yl)-1,3-dioxoisoindolin-4-yl)amino)ethoxy)ethoxy)propanoyl)piperazin-1-yl)methyl)pyrimidin-2-yl)-1,2,3,6-tetrahydropyridin-4-yl)-4-fluoro-2-((3S,5R)-3,4,5-trimethylpiperazin-1-yl)phenyl)-6-oxo-4-(trifluoromethyl)-1,6-dihydropyridine-3-carboxamide] | able to effectively degrade WDR5 |
| C[C@@H]1CN(c2cc(F)c(-c3cnc(N4CCN(C(=O)CCOCCOCCOCCOCCNc5cccc6c5C(=O)N(C5CCC(=O)NC5=O)C6=O)CC4)nc3)cc2NC(=O)c2ccc(F)cc2C(F)(F)F)C[C@H](C)N1C (stereo partly drawn) [XF078-126, N-(5-(2-(4-(1-((2-(2,6-dioxopiperidin-3-yl)-1,3-dioxoisoindolin-4-yl)amino)-3,6,9,12-tetraoxapentadecan-15-oyl)piperazin-1-yl)pyrimidin-5-yl)-4-fluoro-2-((3S,5R)-3,4,5-trimethylpiperazin-1-yl)phenyl)-4-fluoro-2-(trifluoromethyl)benzamide] | able to effectively degrade WDR5 |
| C[C@@H]1CN(c2ccc(-c3cc(CN4CCN(CCNC(=O)CCCNc5cccc6c5C(=O)N(C5CCC(=O)NC5=O)C6=O)CC4)ccc3F)cc2NC(=O)c2c[nH]c(=O)cc2C(F)(F)F)C[C@H](C)N1C (stereo partly drawn) [XF078-20, N-(5′-((4-(2-(4-((2-(2,6-dioxopiperidin-3-yl)-1,3-dioxoisoindolin-4-yl)amino)butanamido)ethyl)piperazin-1-yl)methyl)-2′-fluoro-4-((3S,5R)-3,4,5-trimethylpiperazin-1-yl)-[1,1′-biphenyl]-3-yl)-6-oxo-4-(trifluoromethyl)-1,6-dihydropyridine-3-carboxamide] | able to effectively degrade WDR5 |
| Cc1ncsc1-c1ccc(CNC(=O)[C@@H]2C[C@@H](O)CN2C(=O)[C@@H](NC(=O)CCCCCCC(=O)NCCN2CCN(Cc3ccc(F)c(-c4ccc(N5C[C@@H](C)N(C)[C@@H](C)C5)c(NC(=O)c5c[nH]c(=O)cc5C(F)(F)F)c4)c3)CC2)C(C)(C)C)cc1 [XF078-14, N^1-(2-(4-((6-fluoro-3′-(6-oxo-4-(trifluoromethyl)-1,6-dihydropyridine-3-carboxamido)-4′-((3S,5R)-3,4,5-trimethylpiperazin-1-yl)-[1,1′-biphenyl]-3-yl)methyl)piperazin-1-yl)ethyl)-N^8-((S)-1-((2S,4R)-4-hydroxy-2-((4-(4-methylthiazol-5-yl)benzyl)carbamoyl)pyrrolidin-1-yl)-3,3-dimethyl-1-oxobutan-2-yl)octanediamide] | able to effectively degrade WDR5 |
| C[C@@H]1CN(c2ccc(-c3cc(CN4CCN(CCNC(=O)CCCCCNc5cccc6c5C(=O)N(C5CCC(=O)NC5=O)C6=O)CC4)ccc3F)cc2NC(=O)c2c[nH]c(=O)cc2C(F)(F)F)C[C@H](C)N1C (stereo partly drawn) [XF078-22, N-(5′-((4-(2-(6-((2-(2,6-dioxopiperidin-3-yl)-1,3-dioxoisoindolin-4-yl)amino)hexanamido)ethyl)piperazin-1-yl)methyl)-2′-fluoro-4-((3S,5R)-3,4,5-trimethylpiperazin-1-yl)-[1,1′-biphenyl]-3-yl)-6-oxo-4-(trifluoromethyl)-1,6-dihydropyridine-3-carboxamide] | able to effectively degrade WDR5 |
| C[C@@H]1CN(c2cc(F)c(-c3cnc(N4CCN(C(=O)CCOCCOCCOCCNc5cccc6c5C(=O)N(C5CCC(=O)NC5=O)C6=O)CC4)nc3)cc2NC(=O)c2ccc(F)cc2C(F)(F)F)C[C@H](C)N1C (stereo partly drawn) [XF078-125, N-(5-(2-(4-(3-(2-(2-(2-((2-(2,6-dioxopiperidin-3-yl)-1,3-dioxoisoindolin-4-yl)amino)ethoxy)ethoxy)ethoxy)propanoyl)piperazin-1-yl)pyrimidin-5-yl)-4-fluoro-2-((3S,5R)-3,4,5-trimethylpiperazin-1-yl)phenyl)-4-fluoro-2-(trifluoromethyl)benzamide] | able to effectively degrade WDR5 |
| Cc1ncsc1-c1ccc(CNC(=O)[C@@H]2C[C@@H](O)CN2C(=O)[C@@H](NC(=O)COCC(=O)NCCN2CCN(Cc3ccc(F)c(-c4ccc(N5C[C@@H](C)N(C)[C@@H](C)C5)c(NC(=O)c5c[nH]c(=O)cc5C(F)(F)F)c4)c3)CC2)C(C)(C)C)cc1 [XF078-1, N-(2′-fluoro-5′-((4-(2-(2-(2-(((S)-1-((2S,4R)-4-hydroxy-2-((4-(4-methylthiazol-5-yl)benzyl)carbamoyl)pyrrolidin-1-yl)-3,3-dimethyl-1-oxobutan-2-yl)amino)-2-oxoethoxy)acetamido)ethyl)piperazin-1-yl)methyl)-4-((3S,5R)-3,4,5-trimethylpiperazin-1-yl)-[1,1′-biphenyl]-3-yl)-6-oxo-4-(trifluoromethyl)-1,6-dihydropyridine-3-carboxamide] | able to effectively degrade WDR5 |
| Cc1ncsc1-c1ccc(CNC(=O)[C@@H]2C[C@@H](O)CN2C(=O)[C@@H](NC(=O)CCCCCCCC(=O)N2CCN(c3ncc(-c4cc(NC(=O)c5ccc(F)cc5C(F)(F)F)c(N5C[C@@H](C)N(C)[C@@H](C)C5)cc4F)cn3)CC2)C(C)(C)C)cc1 [XF078-113, (2S,4R)-1-((S)-2-(9-(4-(5-(2-fluoro-5-(4-fluoro-2-(trifluoromethyl)benzamido)-4-((3S,5R)-3,4,5-trimethylpiperazin-1-yl)phenyl)pyrimidin-2-yl)piperazin-1-yl)-9-oxononanamido)-3,3-dimethylbutanoyl)-4-hydroxy-N-(4-(4-methylthiazol-5-yl)benzyl)pyrrolidine-2-carboxamide] | able to effectively degrade WDR5 |
| C[C@@H]1CN(c2ccc(-c3cc(CN4CCN(CCNC(=O)CCOCCOCCOCCOCCNc5cccc6c5C(=O)N(C5CCC(=O)NC5=O)C6=O)CC4)ccc3F)cc2NC(=O)c2c[nH]c(=O)cc2C(F)(F)F)C[C@H](C)N1C (stereo partly drawn) [XF078-28, N-(5′-((4-(1-((2-(2,6-dioxopiperidin-3-yl)-1,3-dioxoisoindolin-4-yl)amino)-15-oxo-3,6,9,12-tetraoxa-16-azaoctadecan-18-yl)piperazin-1-yl)methyl)-2′-fluoro-4-((3S,5R)-3,4,5-trimethylpiperazin-1-yl)-[1,1′-biphenyl]-3-yl)-6-oxo-4-(trifluoromethyl)-1,6-dihydropyridine-3-carboxamide] | able to effectively degrade WDR5 |
| C[C@@H]1CN(c2cc(F)c(C3=CCN(c4ncc(CN5CCN(C(=O)CNc6cccc7c6C(=O)N(C6CCC(=O)NC6=O)C7=O)CC5)cn4)CC3)cc2NC(=O)c2c[nH]c(=O)cc2C(F)(F)F)C[C@H](C)N1C (stereo partly drawn) [XF078-149, N-(5-(1-(5-((4-((2-(2,6-dioxopiperidin-3-yl)-1,3-dioxoisoindolin-4-yl)glycyl)piperazin-1-yl)methyl)pyrimidin-2-yl)-1,2,3,6-tetrahydropyridin-4-yl)-4-fluoro-2-((3S,5R)-3,4,5-trimethylpiperazin-1-yl)phenyl)-6-oxo-4-(trifluoromethyl)-1,6-dihydropyridine-3-carboxamide] | able to effectively degrade WDR5 |
| C[C@@H]1CN(c2ccc(-c3cc(CN4CCN(CCNC(=O)CCCCNc5cccc6c5C(=O)N(C5CCC(=O)NC5=O)C6=O)CC4)ccc3F)cc2NC(=O)c2c[nH]c(=O)cc2C(F)(F)F)C[C@H](C)N1C (stereo partly drawn) [XF078-21, N-(5′-((4-(2-(5-((2-(2,6-dioxopiperidin-3-yl)-1,3-dioxoisoindolin-4-yl)amino)pentanamido)ethyl)piperazin-1-yl)methyl)-2′-fluoro-4-((3S,5R)-3,4,5-trimethylpiperazin-1-yl)-[1,1′-biphenyl]-3-yl)-6-oxo-4-(trifluoromethyl)-1,6-dihydropyridine-3-carboxamide] | able to effectively degrade WDR5 |
